Assays:
[1] = tested on: BM-MSCs; assay: Alcian Blue staining (GAG and HA), BM-MSCs; format: cell-based, Human; details: 10 days
Method: (§1) CPCs and BM-MSCs were cultured again at 22,000 cell/swell for 10 days in 12-well plates and again treated with KGN. At 5 and 10 days of treatment, cell culture supernatant was collected, with cell media and KGN replenished at the 5-day timepoint (N=3). Supernatants were used to perform ELISA for measuring MMP13 protein. At day 10, cell culture plates were stained for Alcian Blue (N=4). The color was extracted and the absorbances were quantified via spectrophotometry, to assess acidic glycosaminoglycans (GAG) and hyaluronan (HA). In analysis, within and between group differences were assessed through 2-way ANOVA with Dunnett's multiple comparisons test. Significant differences are signified by p-values ≤0.05.
(§2) Human CPCs and BM-MSCs were cultured at 40,000 cells/well for 3 days or 22,000 cells/well for 10 days on 12-well plates. Cells were either untreated or treated with 500 nM, 1 uM, 10 uM, or 100 uM KGN (Sigma-Aldrich) at N=5 for each treatment group. […] The color was extracted and the absorbances were quantified via spectrophotometry, to assess acidic glycosaminoglycans (GAG) and hyaluronan (HA). In analysis, within and between group differences were assessed through 2-way ANOVA with Dunnett's multiple comparisons test. […]

[2] = tested on: Human CPCs; assay: RT-qPCR of chondrogenic and hypertrophy markers after KGN treatment, CPCs; format: cell-based
Method: (§3) 1 μM KGN enhances chondrogenesis of CPCs but not MSCs. The following materials and methods were used to generate the data described herein. Human CPCs and bone marrow derived mesenchymal stem cells (BM-MSCs) were cultured at 40,000 cells/well for 3 days or 22,000 cells/well for 10 days on 12-well plates. Cells were either untreated or treated with 500 nM, 1 μM, 10 μM, or 100 μM KGN (Sigma-Aldrich) at N=5 for each treatment group. At experimental endpoint following KGN treatment, RT-qPCR was used the measure expression of chondrogenic markers SRY-Box Transcription Factor 9 (SOX9), collagen 2 (COL2), collagen 1 (COL1) (FIG. 3A) as well as hypertrophy and catabolism markers, associated with development of osteoarthritis, collagen 10 (COL10), matrix metallopeptidase 13 (MMP13), Runt-related transcription factor 2 (RUNX2) (FIG. 3B).
as §1, with “Human CPCs and BM-MSCs were cultured at 40,000 cells/well for 3 days or 22,000 cells/well for 10 days on 12-well plates. Cells were either untreated or treated with 500 nM, 1 uM, 10 uM, or 100 uM KGN (Sigma-Aldrich) at N=5 for each treatment group. At experimental endpoint following KGN treatment, RT-qPCR was used the measure expression of chondrogenic markers SOX9, COL2, COL1 as well as hypertrophy and catabolism markers COL10, MMP13, RUNX2. CPCs” for “CPCs”, “p-values≤0.05.” for “p-values ≤0.05.”

[3] = tested on: BM-MSCs; assay: ELISA for MMP13 protein in cell culture supernatant, BM-MSCs; format: cell-based, Human
Method: as §1
as §1, with “Human CPCs and BM-MSCs were cultured at 40,000 cells/well for 3 days or 22,000 cells/well for 10 days on 12-well plates. Cells were either untreated or treated with 500 nM, 1 uM, 10 uM, or 100 uM KGN (Sigma-Aldrich) at N=5 for each treatment group. At experimental endpoint following KGN treatment, RT-qPCR was used the measure expression of chondrogenic markers SOX9, COL2, COL1 as well as hypertrophy and catabolism markers COL10, MMP13, RUNX2. CPCs” for “CPCs”, “p-values≤0.05.” for “p-values ≤0.05.”

[4] = tested on: Human CPCs; assay: ELISA for MMP13 protein in cell culture supernatant, CPCs; format: cell-based; details: all treatment groups
Method: as §1, §2

[5] = tested on: bone marrow derived mesenchymal stem cells (BM-MSCs); assay: RT-qPCR of chondrogenic and hypertrophy markers after KGN treatment, BM-MSCs; format: cell-based, Human
Method: as §3
as §1, with “Human CPCs and BM-MSCs were cultured at 40,000 cells/well for 3 days or 22,000 cells/well for 10 days on 12-well plates. Cells were either untreated or treated with 500 nM, 1 uM, 10 uM, or 100 uM KGN (Sigma-Aldrich) at N=5 for each treatment group. At experimental endpoint following KGN treatment, RT-qPCR was used the measure expression of chondrogenic markers SOX9, COL2, COL1 as well as hypertrophy and catabolism markers COL10, MMP13, RUNX2. CPCs” for “CPCs”, “p-values≤0.05.” for “p-values ≤0.05.”

[6] = tested on: Human CPCs; assay: Alcian Blue staining (GAG and HA), CPCs; format: cell-based; details: 1 μM KGN, 10 days, p<0.05
Method: as §1, §2

O=C(O)c1ccccc1C(=O)Nc1ccc(-c2ccccc2)cc1 [KGN, kartogenin]
Alcian Blue staining intensity vs untreated ([1]; 10 μM KGN, p<0.05): stained more intensely
Alcian Blue staining intensity vs untreated ([1]; 100 μM KGN, p<0.0001): stained more intensely
expression of MMP13 ([2]; 1 μM KGN, 3 days): increased
expression of RUNX2 ([2]; 1 μM KGN, 3 days): increased
expression of RUNX2 ([2]; 10 μM KGN, 3 days): increased
expression of RUNX2 ([2]; 100 μM KGN, 3 days): increased
upregulation of COL2 mRNA ([2]; CPCs, 1 μM KGN, 3 days, p<0.0001): 2 fold
upregulation of SOX9 mRNA ([2]; CPCs, 1 μM KGN, 3 days, p<0.05): 2 fold
upregulation of COL2 mRNA ([2]; CPCs, 1 μM KGN, 10 days, p<0.05): maintained
protein levels of MMP13 ([3]; 10 μM KGN, 0-5 days, p<0.001): significant decrease
protein levels of MMP13 ([3]; 10 μM KGN, 5-10 days, p<0.05): significant decrease
protein levels of MMP13 ([3]; 100 μM KGN, 0-5 days, p<0.0001): significant decrease
protein levels of MMP13 ([3]; 100 μM KGN, 5-10 days, p<0.0001): significant decrease
MMP13 protein in supernatant ([4]; 0-5 days KGN treatment): undetectable
MMP13 protein in supernatant ([4]; 6-10 days KGN treatment): undetectable
expression of COL10 ([5]; 100 μM KGN, 10 days, p<0.05): significantly reduced
expression of MMP13 ([5]; 100 μM KGN, 10 days, p<0.05): significantly reduced
expression of COL1 ([5]; KGN): did not increase
expression of COL2 ([5]; KGN): did not increase
expression of SOX9 ([5]; KGN): did not increase
Alcian Blue staining intensity vs untreated [6]: increased intensity

Source: patent US20240139376A1, “RECONSTITUTION OF EXTRACELLULAR MATRIXES FOR MUSCULOSKELETAL JOINT TISSUE REPAIR USING BIOMIMETIC BIOLOGIC AND SYNTHETIC FACTORS” (Rhode Island Hospital, priority 2021, published 2024)
